# Test system: yeast genes (level of expressed mRNA)
# Experiment: DNA chip analysis of expressed mRNA of yeast genes after 2 h culture with a toxic chemical substance
# Type: cell-based, Saccharomyces cerevisiae S288C
# Conditions: for The level of expressed mRNA in the presence of chemical substance/ (ratio to absence): transport facilitation protein gene; for The level of expressed mRNA in the presence of chemical substance/: ratio to no chemical; for The level of expressed mRNA in the presence of chemical substance/ in its absence, gene YDL078C: yeast gene YDL078C
# How it was run: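 S. cerevisiae S288C in YPD at 25 °C was exposed at log phase for 2 h to a growth-inhibiting, non-lethal concentration of the chemical. Poly(A) mRNA was reverse-transcribed with Cy3- or Cy5-dUTP and hybridized to a whole-genome yeast DNA chip (65 °C, >12 h). Values are fluorescence ratios versus untreated cells.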
substance,measurement,setting,value
sodium dodecylbenzosulfonate [(17)],"The level of expressed mRNA in the presence of chemical substance/ (ratio to absence), gene YBR122C","yeast gene YBR122C, mitochondria-located protein genes, 2 h culture with chemical",0.9
same,The level of expressed mRNA in the presence of chemical substance/ (ratio to absence),yeast gene YBR127C,0.8
same,The level of expressed mRNA in the presence of chemical substance/ (ratio to absence),yeast gene YBR132C,1.1
same,The level of expressed mRNA in the presence of chemical substance/in the absence of chemical substance,yeast gene YBR149W,2.1
same,The level of expressed mRNA in the presence of chemical substance/ (ratio to absence),yeast gene YBR207W,1.2
same,The level of expressed mRNA in the presence of chemical substance/The level of expressed mRNA in the absence of chemical substance,yeast gene YBR214W,1.1
same,The level of expressed mRNA in the presence of chemical substance/ (ratio to absence),yeast gene YBR241C,1.0
same,"The level of expressed mRNA in the presence of chemical substance/ (ratio to absence), gene YBR251W","yeast gene YBR251W, mitochondria-located protein genes, 2 h culture with chemical",0.9
same,The level of expressed mRNA in the presence of chemical substance/in the absence of chemical substance,yeast gene YBR256C,2.6
same,The level of expressed mRNA in the presence of chemical substance/,yeast gene YBR269C,1.5
same,The level of expressed mRNA in the presence of chemical substance/,yeast gene YBR280C,1.1
same,The level of expressed mRNA in the presence of chemical substance/in the absence of chemical substance,yeast gene YBR284W,1.1
same,The level of expressed mRNA in the presence of chemical substance/,yeast gene YBR285W,2.5
same,The level of expressed mRNA in the presence of chemical substance/ (ratio to absence),yeast gene YBR291C,0.9
same,The level of expressed mRNA in the presence of chemical substance/,yeast gene YBR292C,0.9
same,The level of expressed mRNA in the presence of chemical substance/ (ratio to absence),yeast gene YBR293W,1.0
same,The level of expressed mRNA in the presence of chemical substance/in the absence of chemical substance,yeast gene YBR294W,1.0
same,The level of expressed mRNA in the presence of chemical substance/ (ratio to absence),yeast gene YBR295W,1.3
same,The level of expressed mRNA in the presence of chemical substance/in the absence of chemical substance,yeast gene YBR296C,3.8
same,"The level of expressed mRNA in the presence of chemical substance/ (in its absence), gene YBR298C","yeast gene YBR298C, ratio of DNA chip fluorescence intensity to that without chemical substance",0.9
same,The level of expressed mRNA in the presence of chemical substance/in the absence of chemical substance,yeast gene YCL018W,1.3
same,The level of expressed mRNA in the presence of chemical substance/The level of expressed mRNA in the absence of chemical substance,yeast gene YCL020W,0.9
same,The level of expressed mRNA in the presence of chemical substance/ (ratio to absence),yeast gene YCL025C,0.6
same,The level of expressed mRNA in the presence of chemical substance/The level of expressed mRNA in the absence of chemical substance,yeast gene YCL027W,0.7
same,The level of expressed mRNA in the presence of chemical substance/ (ratio to absence),yeast gene YCL038C,1.4
same,The level of expressed mRNA in the presence of chemical substance/in the absence of chemical substance,yeast gene YCL040W,1.4
same,The level of expressed mRNA in the presence of chemical substance/in the absence of chemical substance,yeast gene YCL043C,0.9
same,The level of expressed mRNA in the presence of chemical substance/in the absence of chemical substance,yeast gene YCL050C,1.0
same,The level of expressed mRNA in the presence of chemical substance/ (ratio to absence),yeast gene YCL069W,1.0
same,The level of expressed mRNA in the presence of chemical substance/The level of expressed mRNA in the absence of chemical substance,yeast gene YCR004C,1.4
same,The level of expressed mRNA in the presence of chemical substance/in the absence of chemical substance,yeast gene YCR012W,0.8
same,The level of expressed mRNA in the presence of chemical substance/ (ratio to absence),yeast gene YCR024C-A,0.9
same,The level of expressed mRNA in the presence of chemical substance/ (ratio to absence),yeast gene YCR037C,1.4
same,"The level of expressed mRNA in the presence of chemical substance/ (ratio to absence), gene YCR046C","yeast gene YCR046C, mitochondria-located protein genes, 2 h culture with chemical",1.3
same,The level of expressed mRNA in the presence of chemical substance/The level of expressed mRNA in the absence of chemical substance,yeast gene YCR071C,1.2
same,"The level of expressed mRNA in the presence of chemical substance/ (ratio to absence), gene YCR083W","yeast gene YCR083W, mitochondria-located protein genes, 2 h culture with chemical",1.3
same,The level of expressed mRNA in the presence of chemical substance/ (ratio to absence of chemical substance),"yeast gene YCR083W, stress protein genes, DNA chip",1.3
same,The level of expressed mRNA in the presence of chemical substance/The level of expressed mRNA in the absence of chemical substance,yeast gene YCR088W,1.4
same,The level of expressed mRNA in the presence of chemical substance/ (ratio to absence),yeast gene YCR098C,1.7
same,The level of expressed mRNA in the presence of chemical substance/in the absence of chemical substance,yeast gene YCR107W,1.3
same,The level of expressed mRNA in the presence of chemical substance/The level of expressed mRNA in the absence of chemical substance,yeast gene YDL008W,1.5
same,The level of expressed mRNA in the presence of chemical substance/in the absence of chemical substance,yeast gene YDL010W,1.5
same,The level of expressed mRNA in the presence of chemical substance/in the absence of chemical substance,yeast gene YDL021W,1.9
same,The level of expressed mRNA in the presence of chemical substance/in the absence of chemical substance,yeast gene YDL024C,0.9
same,"The level of expressed mRNA in the presence of chemical substance/ in its absence, gene YDL067C","yeast gene YDL067C, energy system protein genes, 2 h culture with the chemical, ratio to control without chemical",1.2
same,"The level of expressed mRNA in the presence of chemical substance/ (ratio to absence), gene YDL067C","yeast gene YDL067C, mitochondria-located protein genes, 2 h culture with chemical",1.2
same,"The level of expressed mRNA in the presence of chemical substance/ in its absence, gene YDL078C","energy system protein genes, 2 h culture with the chemical, ratio to control without chemical",1.1
same,"The level of expressed mRNA in the presence of chemical substance/ in its absence, gene YDL078C",ratio of DNA chip fluorescence intensity to that without chemical substance,1.1
same,The level of expressed mRNA in the presence of chemical substance/in the absence of chemical substance,yeast gene YDL095W,0.7
same,The level of expressed mRNA in the presence of chemical substance/,yeast gene YDL113C,1.2
same,The level of expressed mRNA in the presence of chemical substance/,yeast gene YDL123W,1.1
same,The level of expressed mRNA in the presence of chemical substance/in the absence of chemical substance,yeast gene YDL124W,2.2
same,The level of expressed mRNA in the presence of chemical substance/ (ratio to absence),yeast gene YDL128W,0.9
same,The level of expressed mRNA in the presence of chemical substance/ (ratio to absence),yeast gene YDL149W,0.8
same,The level of expressed mRNA in the presence of chemical substance/in the absence of chemical substance,yeast gene YDL174C,2.2
same,The level of expressed mRNA in the presence of chemical substance/ (ratio to absence),yeast gene YDL198C,1.5
same,The level of expressed mRNA in the presence of chemical substance/ (ratio to absence),yeast gene YDL206W,1.0
same,The level of expressed mRNA in the presence of chemical substance/ (ratio to absence),yeast gene YDL210W,1.1
same,"The level of expressed mRNA in the presence of chemical substance/ (in its absence), gene YDL215C","yeast gene YDL215C, ratio of DNA chip fluorescence intensity to that without chemical substance",1.1
same,The level of expressed mRNA in the presence of chemical substance/,yeast gene YDL234C,2.3
same,The level of expressed mRNA in the presence of chemical substance/The level of expressed mRNA in the absence of chemical substance,yeast gene YDL238C,1.1
same,The level of expressed mRNA in the presence of chemical substance/,yeast gene YDL242W,0.9
same,The level of expressed mRNA in the presence of chemical substance/in the absence of chemical substance,yeast gene YDL243C,1.8
same,The level of expressed mRNA in the presence of chemical substance/in the absence of chemical substance,yeast gene YDL245C,1.0
same,The level of expressed mRNA in the presence of chemical substance/ (ratio to absence),yeast gene YDL245C,1.0
same,The level of expressed mRNA in the presence of chemical substance/in the absence of chemical substance,yeast gene YDL246C,1.8
same,The level of expressed mRNA in the presence of chemical substance/in the absence of chemical substance,yeast gene YDR001C,1.1
same,The level of expressed mRNA in the presence of chemical substance/,yeast gene YDR018C,0.9
same,The level of expressed mRNA in the presence of chemical substance/ (ratio to absence),yeast gene YDR038C,1.3
same,The level of expressed mRNA in the presence of chemical substance/ (ratio to absence),yeast gene YDR039C,1.1
same,The level of expressed mRNA in the presence of chemical substance/ (ratio to absence),yeast gene YDR040C,1.4
same,The level of expressed mRNA in the presence of chemical substance/The level of expressed mRNA in the absence of chemical substance,yeast gene YDR055W,2.0
same,The level of expressed mRNA in the presence of chemical substance/,yeast gene YDR056C,1.2
same,The level of expressed mRNA in the presence of chemical substance/in the absence of chemical substance,yeast gene YDR058C,1.1
same,The level of expressed mRNA in the presence of chemical substance/in the absence of chemical substance,yeast gene YDR072C,1.9
same,"The level of expressed mRNA in the presence of chemical substance/ (in its absence), gene YDR073W","yeast gene YDR073W, ratio of DNA chip fluorescence intensity to that without chemical substance",1.8
same,"The level of expressed mRNA in the presence of chemical substance/ in its absence, gene YDR079W","yeast gene YDR079W, energy system protein genes, 2 h culture with the chemical, ratio to control without chemical",1.1
same,"The level of expressed mRNA in the presence of chemical substance/ (ratio to absence), gene YDR079W","yeast gene YDR079W, mitochondria-located protein genes, 2 h culture with chemical",1.1
same,The level of expressed mRNA in the presence of chemical substance/The level of expressed mRNA in the absence of chemical substance,yeast gene YDR084C,2.0
same,The level of expressed mRNA in the presence of chemical substance/The level of expressed mRNA in the absence of chemical substance,yeast gene YDR085C,1.3
same,The level of expressed mRNA in the presence of chemical substance/The level of expressed mRNA in the absence of chemical substance,yeast gene YDR104C,0.9
same,The level of expressed mRNA in the presence of chemical substance/The level of expressed mRNA in the absence of chemical substance,yeast gene YDR115W,1.2
same,The level of expressed mRNA in the presence of chemical substance/in the absence of chemical substance,yeast gene YDR127W,0.9
same,The level of expressed mRNA in the presence of chemical substance/,yeast gene YDR132C,1.0
same,The level of expressed mRNA in the presence of chemical substance/,yeast gene YDR154C,1.5
same,The level of expressed mRNA in the presence of chemical substance/in the absence of chemical substance,yeast gene YDR158W,1.0
same,The level of expressed mRNA in the presence of chemical substance/,yeast gene YDR202C,1.0
same,The level of expressed mRNA in the presence of chemical substance/in the absence of chemical substance,yeast gene YDR204W,1.1
same,The level of expressed mRNA in the presence of chemical substance/,yeast gene YDR223W,0.9
same,The level of expressed mRNA in the presence of chemical substance/The level of expressed mRNA in the absence of chemical substance,yeast gene YDR259C,1.0
same,The level of expressed mRNA in the presence of chemical substance/in the absence of chemical substance,yeast gene YDR261C,0.9
same,The level of expressed mRNA in the presence of chemical substance/ (ratio to absence),yeast gene YDR270W,0.9
same,The level of expressed mRNA in the presence of chemical substance/in the absence of chemical substance,yeast gene YDR272W,1.4
same,The level of expressed mRNA in the presence of chemical substance/,yeast gene YDR295C,0.8
same,"The level of expressed mRNA in the presence of chemical substance/ (in its absence), gene YDR297W","yeast gene YDR297W, ratio of DNA chip fluorescence intensity to that without chemical substance",1.9

# From patent US20050112573A1, “Method of detecting toxic substance” (priority 2001, published 2005)
